Reference: BindingDB's records for patent US20250136592 (Bridge Medicines, 2025)

What follows are compounds tested against T1, Protein ENL (Homo sapiens, UniProt Q03111) (assay: FRET Assay).
T1 sequence (Q03111 whole entry): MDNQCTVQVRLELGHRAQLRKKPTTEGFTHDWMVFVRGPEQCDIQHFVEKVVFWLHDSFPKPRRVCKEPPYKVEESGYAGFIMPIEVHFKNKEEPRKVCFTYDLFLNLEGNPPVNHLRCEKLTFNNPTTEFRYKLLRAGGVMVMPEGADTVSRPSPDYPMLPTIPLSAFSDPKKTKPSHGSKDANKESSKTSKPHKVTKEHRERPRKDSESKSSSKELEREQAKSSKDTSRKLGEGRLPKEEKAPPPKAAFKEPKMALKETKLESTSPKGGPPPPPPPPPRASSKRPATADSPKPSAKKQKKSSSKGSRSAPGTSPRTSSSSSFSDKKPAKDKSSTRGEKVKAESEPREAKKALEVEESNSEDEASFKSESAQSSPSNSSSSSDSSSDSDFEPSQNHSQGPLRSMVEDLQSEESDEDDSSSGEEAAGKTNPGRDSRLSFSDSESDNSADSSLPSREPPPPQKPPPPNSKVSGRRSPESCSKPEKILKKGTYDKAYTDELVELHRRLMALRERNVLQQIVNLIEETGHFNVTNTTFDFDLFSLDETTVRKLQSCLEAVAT
Method: Low control (LC) wells received 5 μL of assay buffer instead of ENL protein. […] The response at each compound concentration minus the LC value was converted to percent inhibition of the vehicle control group response (HC-LC).

In order of rising IC50:
1. Cc1nccc2cc(C(=O)Nc3cc4[nH]c([C@H]5CCCCN5C)cc4cn3)ccc12 [US20250136592, Example 80]  0.018 µM
2. CN1CCC[C@@H]1c1cc2cnc(NC(=O)c3ccc4c(c3)nnn4-c3ccncc3)cc2[nH]1 [US20250136592, Example 85]  0.056 µM
3. CN1CCC[C@@H]1c1nc2ccc(NC(=O)c3ccc4c(C5CC5)nn(C)c4c3)cc2[nH]1 [US20250136592, Example 10]  0.098 µM
4. CN1CCC[C@@H]1c1nc2cc(NC(=O)c3ccc4c(-c5ccncc5)noc4c3)ccc2[nH]1 [US20250136592, Example 13]  0.158 µM
